Source: PMC8156508, “Ileo-Colon Targeting of the Poorly Water-Soluble Drug Celecoxib Using a pH-Dependent Coating in Combination with Self-Emulsifying Drug Delivery or Solid Dispersion Systems” (Pharmaceutics, 2021)
Values belong to the compound of their own block, whether it stands above or below them.

How the values were obtained:
[1] = pH 7; cited from earlier work
[2] = Saturation concentration of CXB in oily phases, surfactants and co-surfactants/co-solvents; format: physicochemical; settings: 30 °C
Description: To assess the saturation concentration of CXB in different oily phases (Capryol 90, Captex 200 P, Captex 355 EP/NF, isopropyl myristate, Maisine CC, and Peceol), surfactants (Cremophor RH40, Labrasol, Tween 20, and Tween 80), and co-surfactants/co-solvents (Capmul PG-8 NF, PEG 400, Plurol oleique CC 497, and tetraglycol), an excess amount of CXB was added to the liquid excipients and placed in a tube rotator at 20 rpm and 30 °C for a day. After that, samples were centrifuged at 14,000 rpm for 20 min and the supernatant was appropriately diluted in methanol. The drug concentration was determined at 252 nm with a UV-VIS spectrophotometer Unicam UV 500A (Gemini, Apeldoorn, The Netherlands).

[3] = design: method as in PMID 26401428; settings: cited from earlier work
[4] = design: method as in PMID 14603484; settings: rats; cited from earlier work
[5] = design: method as in PMID 26146768; settings: cited from earlier work

- solubility of CXB in surfactants ([2]; Tween 20, Tween 80, cremophor RH40, Labrasol ALF): comparable CXB solubilities
- solubility of CXB in co-surfactants/co-solvents ([2]; in PEG 400 and tetraglycol): highest solubility
- solubility of CXB in oily phases ([2]; in capryol 90, among six oily phases): highest amount
Structure (SMILES): Cc1ccc(-c2cc(C(F)(F)F)nn2-c2ccc(S(N)(=O)=O)cc2)cc1 [CXB, Celecoxib]
- solubility [1]: 3 to 7 µg/mL

Structure (SMILES): CCCCCCCCCCCCOS(=O)(=O)[O-].[Na+] [SDS, sodium dodecyl sulfate]
- critical micelle concentration [3]: 8 mM

Structure (SMILES): CC(=O)O[C@H]1C(=O)[C@@]2(C)[C@H]([C@H](OC(=O)c3ccccc3)[C@]3(O)C[C@H](OC(=O)[C@H](O)[C@@H](NC(=O)c4ccccc4)c4ccccc4)C(C)=C1C3(C)C)[C@]1(OC(C)=O)CO[C@@H]1C[C@@H]2O [paclitaxel]
- higher bioavailability by HPMC precipitation inhibition in SEDDS [4]: 5 fold

Structure (SMILES): C[C@]12C=CC(=O)C=C1CC[C@@H]1[C@@H]2[C@@H](O)C[C@@]2(C)[C@H]1CC[C@]2(O)C(=O)CO [prednisolone]
- effect of pH-dependent colon targeted film coating on in vitro release profile of solid SMEDDS [5]: not impacted
